Source: ChEMBL document CHEMBL5236651, “Synthesis and antibacterial activity of novel 2‑fluoro ketolide antibiotics with 11,12‑quinoylalkyl side chains” (2023)
Converted amounts (≈) assume the structure as drawn.

What was measured:
Assay type in all cases: functional
Enterococcus faecalis [1] = test: Antibacterial activity against vancomycin-sensitive Enterococcus faecalis […] assessed as inhibition of bacterial growth by CLSI based micro broth double dilution method
Streptococcus pneumoniae [2] = test: Antibacterial activity against erythromycin-sensitive Streptococcus pneumoniae ATCC 49619 assessed as inhibition of bacterial growth by CLSI based micro broth double dilution method
Pseudomonas aeruginosa [3] = test: Antibacterial activity against Pseudomonas aeruginosa ATCC 27853 assessed as inhibition of bacterial growth by CLSI based micro broth double dilution method
Streptococcus pyogenes [4] = test: Antibacterial activity against erythromycin-sensitive Streptococcus pyogenes ATCC 19615 assessed as inhibition of bacterial growth by CLSI based micro broth double dilution method
Pseudomonas aeruginosa [5] = test: Antibacterial activity against Pseudomonas aeruginosa PAO1 assessed as inhibition of bacterial growth by CLSI based micro broth double dilution method
Enterococcus faecalis [6] = test: Antibacterial activity against vancomycin-resistant Enterococcus faecalis ATCC 51575 assessed as inhibition of bacterial growth by CLSI based micro broth double dilution method
Staphylococcus aureus [7] = test: Antibacterial activity against methicillin-sensitive Staphylococcus aureus ATCC 29213 assessed as inhibition of bacterial growth by CLSI based micro broth double dilution method
Escherichia coli [8] = test: Antibacterial activity against ESBL-positive Escherichia coli ATCC 35218 assessed as inhibition of bacterial growth by CLSI based micro broth double dilution method
Escherichia coli [9] = test: Antibacterial activity against ESBL-negative Escherichia coli ATCC 25922 assessed as inhibition of bacterial growth by CLSI based micro broth double dilution method
Streptococcus pyogenes [10] = test: Antibacterial activity against erythromycin-resistant Streptococcus pyogenes 12-1 assessed as inhibition of bacterial growth by CLSI based micro broth double dilution method
Klebsiella pneumoniae [11] = test: Antibacterial activity against ESBL negative Klebsiella pneumoniae 16-2 assessed as inhibition of bacterial growth by CLSI based micro broth double dilution method
Klebsiella pneumoniae [12] = test: Antibacterial activity against ESBL negative Klebsiella pneumoniae 7 assessed as inhibition of bacterial growth by CLSI based micro broth double dilution method
Escherichia coli [13] = test: Antibacterial activity against Escherichia coli 16-7 assessed as inhibition of bacterial growth by CLSI based micro broth double dilution method
Streptococcus pneumoniae [14] = test: Antibacterial activity against erythromycin-resistant Streptococcus pneumoniae 12-3 assessed as inhibition of bacterial growth by CLSI based micro broth double dilution method
Klebsiella pneumoniae [15] = test: Antibacterial activity against ESBL positive Klebsiella pneumoniae ATCC 700603 assessed as inhibition of bacterial growth by CLSI based micro broth double dilution method
Staphylococcus aureus [16] = test: Antibacterial activity against methicillin-sensitive Staphylococcus aureus 15 assessed as inhibition of bacterial growth by CLSI based micro broth double dilution method
Enterococcus faecalis [17] = test: Antibacterial activity against vancomycin-resistant Enterococcus faecalis ATCC 51299 assessed as inhibition of bacterial growth by CLSI based micro broth double dilution method
Staphylococcus aureus [18] = test: Antibacterial activity against methicillin-sensitive Staphylococcus aureus 16-1 assessed as inhibition of bacterial growth by CLSI based micro broth double dilution method
Pseudomonas aeruginosa [19] = test: Antibacterial activity against Pseudomonas aeruginosa 16-11 assessed as inhibition of bacterial growth by CLSI based micro broth double dilution method
[20] = system: Staphylococcus epidermidis; test: Antibacterial activity against methicillin-sensitive Staphylococcus epidermidis 16-4 assessed as inhibition of bacterial growth by CLSI based micro broth double dilution method
[21] = system: Staphylococcus epidermidis; test: Antibacterial activity against methicillin-sensitive Staphylococcus epidermidis ATCC 12228 assessed as inhibition of bacterial growth by CLSI based micro broth double dilution method
Enterococcus faecalis [22] = test: Antibacterial activity against vancomycin-sensitive Enterococcus faecalis 16-6 assessed as inhibition of bacterial growth by CLSI based micro broth double dilution method

`CC[C@H]1OC(=O)[C@@](C)(F)C(=O)[C@H](C)[C@@H](O[C@@H]2O[C@H](C)C[C@H](N(C)C)[C@H]2O)[C@@](C)(OC)C[C@@H](C)C(=O)[C@H](C)[C@H]2N(CCCN(C(=O)CCc3ccccc3)c3cnc4ccccc4c3)C(=O)O[C@]12C` was tested, and the MIC (Enterococcus faecalis [1]) was 0.5 µg/mL (≈ 0.528 µM), the MIC (Streptococcus pneumoniae [2]) was at most 0.016 µg/mL and the MIC (Pseudomonas aeruginosa [3]) was over 32 µg/mL. The MIC (Streptococcus pyogenes [4]) was 0.5 µg/mL (≈ 0.528 µM), the MIC (Pseudomonas aeruginosa [5]) was over 32 µg/mL and the MIC (Enterococcus faecalis [6]) was over 32 µg/mL. It also gave an MIC (Staphylococcus aureus [7]) of 1 µg/mL (≈ 1.06 µM), an MIC (Escherichia coli [8]) of over 32 µg/mL and an MIC (Escherichia coli [9]) of over 32 µg/mL. For the same compound, the MIC (Streptococcus pyogenes [10]) was 16 µg/mL (≈ 16.9 µM), the MIC (Klebsiella pneumoniae [11]) was over 32 µg/mL and the MIC (Klebsiella pneumoniae [12]) was over 32 µg/mL. For the same compound, the MIC (Escherichia coli [13]) was over 32 µg/mL, the MIC (Streptococcus pneumoniae [14]) was 0.06 µg/mL (≈ 0.0633 µM) and the MIC (Klebsiella pneumoniae [15]) was over 32 µg/mL. It also gave an MIC (Staphylococcus aureus [16]) of 1 µg/mL (≈ 1.06 µM), an MIC (Enterococcus faecalis [17]) of over 32 µg/mL and an MIC (Staphylococcus aureus [18]) of 1 µg/mL (≈ 1.06 µM). It also gave an MIC (Pseudomonas aeruginosa [19]) of over 32 µg/mL, an MIC [20] of 4 µg/mL (≈ 4.22 µM) and an MIC [21] of 0.5 µg/mL (≈ 0.528 µM). For the same compound, the MIC (Enterococcus faecalis [22]) was over 32 µg/mL.

`CC[C@H]1OC(=O)[C@@](C)(F)C(=O)[C@H](C)[C@@H](O[C@@H]2O[C@H](C)C[C@H](N(C)C)[C@H]2O)[C@@](C)(OC)C[C@@H](C)C(=O)[C@H](C)[C@H]2N(CCCN(C(=O)/C=C/c3ccccc3)c3ccnc4ccccc34)C(=O)O[C@]12C` showed an MIC (Enterococcus faecalis [1]) of 0.5 µg/mL (≈ 0.529 µM), an MIC (Streptococcus pneumoniae [2]) of at most 0.016 µg/mL and an MIC (Pseudomonas aeruginosa [3]) of over 32 µg/mL. For the same compound, the MIC (Streptococcus pyogenes [4]) was 0.5 µg/mL (≈ 0.529 µM), the MIC (Pseudomonas aeruginosa [5]) was over 32 µg/mL and the MIC (Enterococcus faecalis [6]) was over 32 µg/mL. It also gave an MIC (Staphylococcus aureus [7]) of 1 µg/mL (≈ 1.06 µM), an MIC (Escherichia coli [8]) of over 32 µg/mL and an MIC (Escherichia coli [9]) of over 32 µg/mL. For the same compound, the MIC (Streptococcus pyogenes [10]) was 8 µg/mL (≈ 8.46 µM), the MIC (Klebsiella pneumoniae [11]) was over 32 µg/mL and the MIC (Klebsiella pneumoniae [12]) was over 32 µg/mL. For the same compound, the MIC (Escherichia coli [13]) was over 32 µg/mL, the MIC (Streptococcus pneumoniae [14]) was 0.5 µg/mL (≈ 0.529 µM) and the MIC (Klebsiella pneumoniae [15]) was 32 µg/mL (≈ 33.9 µM). It also gave an MIC (Staphylococcus aureus [16]) of 1 µg/mL (≈ 1.06 µM), an MIC (Enterococcus faecalis [17]) of over 32 µg/mL and an MIC (Staphylococcus aureus [18]) of 0.5 µg/mL (≈ 0.529 µM). It also gave an MIC (Pseudomonas aeruginosa [19]) of over 32 µg/mL, an MIC [20] of 1 µg/mL (≈ 1.06 µM) and an MIC [21] of 1 µg/mL (≈ 1.06 µM). For the same compound, the MIC (Enterococcus faecalis [22]) was over 32 µg/mL.

Compound `CC[C@H]1OC(=O)[C@@](C)(F)C(=O)[C@H](C)[C@@H](O[C@@H]2O[C@H](C)C[C@H](N(C)C)[C@H]2O)[C@@](C)(OC)C[C@@H](C)C(=O)[C@H](C)[C@H]2N(CCCN(C(=O)/C=C/c3ccccc3)c3cnc4ccccc4c3)C(=O)O[C@]12C` has an MIC (Enterococcus faecalis [1]) of 0.5 µg/mL (≈ 0.529 µM), an MIC (Streptococcus pneumoniae [2]) of at most 0.016 µg/mL and an MIC (Pseudomonas aeruginosa [3]) of over 32 µg/mL. For the same compound, the MIC (Streptococcus pyogenes [4]) was 0.25 µg/mL (≈ 0.265 µM), the MIC (Pseudomonas aeruginosa [5]) was over 32 µg/mL and the MIC (Enterococcus faecalis [6]) was over 32 µg/mL. For the same compound, the MIC (Staphylococcus aureus [7]) was 1 µg/mL (≈ 1.06 µM), the MIC (Escherichia coli [8]) was over 32 µg/mL and the MIC (Escherichia coli [9]) was over 32 µg/mL. For the same compound, the MIC (Streptococcus pyogenes [10]) was 8 µg/mL (≈ 8.46 µM), the MIC (Klebsiella pneumoniae [11]) was over 32 µg/mL and the MIC (Klebsiella pneumoniae [12]) was over 32 µg/mL. It also gave an MIC (Escherichia coli [13]) of over 32 µg/mL, an MIC (Streptococcus pneumoniae [14]) of 0.25 µg/mL (≈ 0.265 µM) and an MIC (Klebsiella pneumoniae [15]) of 32 µg/mL (≈ 33.9 µM). The MIC (Staphylococcus aureus [16]) was 1 µg/mL (≈ 1.06 µM), the MIC (Enterococcus faecalis [17]) was over 32 µg/mL and the MIC (Staphylococcus aureus [18]) was 1 µg/mL (≈ 1.06 µM). The MIC (Pseudomonas aeruginosa [19]) was over 32 µg/mL, the MIC [20] was 2 µg/mL (≈ 2.12 µM) and the MIC [21] was 1 µg/mL (≈ 1.06 µM). It also gave an MIC (Enterococcus faecalis [22]) of over 32 µg/mL.

For `CC[C@H]1OC(=O)[C@@](C)(F)C(=O)[C@H](C)[C@@H](O[C@@H]2O[C@H](C)C[C@H](N(C)C)[C@H]2O)[C@@](C)(OC)C[C@@H](C)C(=O)[C@H](C)[C@H]2N(CCCN(Cc3ccccc3)c3cnc4ccccc4c3)C(=O)O[C@]12C`, the MIC (Enterococcus faecalis [1]) was 0.5 µg/mL (≈ 0.552 µM), the MIC (Streptococcus pneumoniae [2]) was 0.03 µg/mL (≈ 0.0331 µM) and the MIC (Pseudomonas aeruginosa [3]) was over 32 µg/mL. It also gave an MIC (Streptococcus pyogenes [4]) of 0.12 µg/mL (≈ 0.133 µM), an MIC (Pseudomonas aeruginosa [5]) of over 32 µg/mL and an MIC (Enterococcus faecalis [6]) of over 32 µg/mL. The MIC (Staphylococcus aureus [7]) was 1 µg/mL (≈ 1.1 µM), the MIC (Escherichia coli [8]) was over 32 µg/mL and the MIC (Escherichia coli [9]) was over 32 µg/mL. It also gave an MIC (Streptococcus pyogenes [10]) of 8 µg/mL (≈ 8.84 µM), an MIC (Klebsiella pneumoniae [11]) of over 32 µg/mL and an MIC (Klebsiella pneumoniae [12]) of 8 µg/mL (≈ 8.84 µM). It also gave an MIC (Escherichia coli [13]) of over 32 µg/mL, an MIC (Streptococcus pneumoniae [14]) of 0.25 µg/mL (≈ 0.276 µM) and an MIC (Klebsiella pneumoniae [15]) of 32 µg/mL (≈ 35.4 µM). It also gave an MIC (Staphylococcus aureus [16]) of 0.5 µg/mL (≈ 0.552 µM), an MIC (Enterococcus faecalis [17]) of over 32 µg/mL and an MIC (Staphylococcus aureus [18]) of 0.5 µg/mL (≈ 0.552 µM). For the same compound, the MIC (Pseudomonas aeruginosa [19]) was over 32 µg/mL, the MIC [20] was 1 µg/mL (≈ 1.1 µM) and the MIC [21] was 0.25 µg/mL (≈ 0.276 µM). It also gave an MIC (Enterococcus faecalis [22]) of over 32 µg/mL.

In the case of `CC[C@H]1OC(=O)[C@@](C)(F)C(=O)[C@H](C)[C@@H](O[C@@H]2O[C@H](C)C[C@H](N(C)C)[C@H]2O)[C@@](C)(OC)C[C@@H](C)C(=O)[C@H](C)[C@H]2N(CCCN(C(C)=O)c3cnc4ccccc4c3)C(=O)O[C@]12C`, the MIC (Enterococcus faecalis [1]) is reported as 0.12 µg/mL (≈ 0.14 µM), the MIC (Streptococcus pneumoniae [2]) is reported as 0.06 µg/mL (≈ 0.07 µM) and the MIC (Pseudomonas aeruginosa [3]) is reported as over 32 µg/mL. It also gave an MIC (Streptococcus pyogenes [4]) of 0.25 µg/mL (≈ 0.292 µM), an MIC (Pseudomonas aeruginosa [5]) of over 32 µg/mL and an MIC (Enterococcus faecalis [6]) of over 32 µg/mL. The MIC (Staphylococcus aureus [7]) was 0.25 µg/mL (≈ 0.292 µM), the MIC (Escherichia coli [8]) was over 32 µg/mL and the MIC (Escherichia coli [9]) was over 32 µg/mL. For the same compound, the MIC (Streptococcus pyogenes [10]) was over 32 µg/mL, the MIC (Klebsiella pneumoniae [11]) was over 32 µg/mL and the MIC (Klebsiella pneumoniae [12]) was over 32 µg/mL. For the same compound, the MIC (Escherichia coli [13]) was over 32 µg/mL, the MIC (Streptococcus pneumoniae [14]) was 0.25 µg/mL (≈ 0.292 µM) and the MIC (Klebsiella pneumoniae [15]) was 32 µg/mL (≈ 37.3 µM). It also gave an MIC (Staphylococcus aureus [16]) of 0.25 µg/mL (≈ 0.292 µM), an MIC (Enterococcus faecalis [17]) of over 32 µg/mL and an MIC (Staphylococcus aureus [18]) of 0.25 µg/mL (≈ 0.292 µM). The MIC (Pseudomonas aeruginosa [19]) was over 32 µg/mL, the MIC [20] was 1 µg/mL (≈ 1.17 µM) and the MIC [21] was 0.25 µg/mL (≈ 0.292 µM). It also gave an MIC (Enterococcus faecalis [22]) of over 32 µg/mL.
